Among the data in patent publication US20260200919A1, “SUBSTITUTED AMINOPYRIDINE COMPOUNDS AND METHODS OF TREATING DISEASE USING SAME” (Atavistik Bio, Inc., priority 2023, published 2026) are IC50 values, retold here.

Assay [1] deals with T1, human recombinant kinase full-length wildtype AKT1 (Homo sapiens, UniProt P31749).
T1 construct: Purified human recombinant kinase full-length wildtype AKT1 was expressed in insect cells; made in house; host or cells: insect cells
The experiment in a line: AKT1 kinase assay (wildtype, TR-FRET, Lance). The class given is biochemical. Particulars: 0.6 nM wildtype AKT1, 50 nM Ulight-CREBtide, either 50 μM ATP or 2 mM ATP (not specified which), 60 min at RT. As for the experimental part: AKT1 kinase assay: Inhibitory effects of compounds on wildtype AKT1 were undertaken in a 10-pt dose response kinase activity assay measuring phospho-peptide product formation based on TR-FRET signal as described in the following paragraph.
(§1) Purified human recombinant kinase full-length wildtype AKT1 was expressed in insect cells and activated in vitro by PDPK1. Ulight™—CREBtide (PerkinElmer, catalog number TRF0107) was used as the peptide substrate. The reaction buffer consisted of 50 mM HEPES pH 7.5, 10 mM MgCl2, 0.01% Triton X-100, 0.01% BSA, 2 mM DTT, 0.6 nM AKT1, 50 nM Ulight™-CREBtide and either 50 μM ATP or 2 mM ATP. The compound solution was prepared as 10 mM DMSO stock. […] Final DMSO concentration in the assay was 1%. […] The reaction was stopped after 60 min of incubation at RT by the addition of 10 μL of Detection Mix (PerkinElmer, #CR97-100) consisting of Europium-anti-phospho-CREB (Ser133) (Perkin Elmer, catalog numberTRF0200). Incubation with the detection mix for a further 60 min allowed binding of antibody to the phospho-Ulight™ CREBtide. The fluorescence emissions at 620 nm and 665 nm after excitation at […] was measured using Envision reader. The ratio of the emissions at 665 nm and at 620 nm provided the measure for the amount of phosphorylated CREBtide product of AKT1 kinase activity.
In general terms: TR-FRET usually uses a lanthanide donor and a delayed reading to cut background.

Assay [2] has as its target T2, human recombinant kinase full-length AKT1 E17K (Homo sapiens, UniProt P31749, E17K).
T2 construct: Purified human recombinant kinase full-length AKT1 E17K was expressed in insect cells; made in house; host or cells: insect cells
The experiment in a line: AKT1 E17K kinase assay (TR-FRET, Lance). Format: biochemical. Particulars: 0.6 nM AKT1 E17K, 50 nM Ulight-CREBtide, either 50 μM ATP or 2 mM ATP (not specified which), 60 min at RT. As for the experimental part: AKT1 E17K kinase assay: Inhibitory effects of compounds on AKT1 E17K were undertaken in a 10-pt dose response kinase activity assay measuring phospho-peptide product formation based on TR-FRET signal as described in the following paragraph.
as §1, with “full-length” for “full-length wildtype”, “AKT1 E17K” for “AKT1”, “Ulight™-CREBtide” for “Ulight™—CREBtide”, “AKT1 E17K,” for “AKT1,”, “nM. Ulight™ CREBtide” for “nM Ulight™-CREBtide”

Where only a bound is given, the exact number is not on record here.

T1 sequence (P31749 whole entry): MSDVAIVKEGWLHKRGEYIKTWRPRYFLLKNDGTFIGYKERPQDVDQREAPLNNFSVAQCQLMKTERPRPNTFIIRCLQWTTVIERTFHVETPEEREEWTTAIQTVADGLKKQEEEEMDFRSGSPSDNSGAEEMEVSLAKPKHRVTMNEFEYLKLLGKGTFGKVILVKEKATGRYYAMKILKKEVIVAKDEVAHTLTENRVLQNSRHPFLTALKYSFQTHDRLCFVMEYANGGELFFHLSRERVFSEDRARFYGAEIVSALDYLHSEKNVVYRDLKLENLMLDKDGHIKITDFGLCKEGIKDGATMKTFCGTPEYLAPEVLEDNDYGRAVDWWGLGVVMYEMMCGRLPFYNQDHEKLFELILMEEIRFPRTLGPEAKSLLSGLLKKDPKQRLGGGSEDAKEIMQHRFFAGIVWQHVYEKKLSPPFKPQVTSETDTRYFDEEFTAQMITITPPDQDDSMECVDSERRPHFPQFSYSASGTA
T2 sequence (P31749 whole entry E17K): as the sequence (P31749 whole entry) above, with E17K counted along it

Regarding `C[C@H](c1ccc(C(=O)O)cc1)N1CC(c2ccc(-n3c(-c4cccnc4N)nc4ccc(-c5ccccc5)nc43)cc2)C1` (single isomer, unassigned) [Compound 125], the IC50 in assay [1] was less than 500 nM; in assay [2], 50 to 200 nM.
On the same counts, the results for `C[C@@H](c1ccc(C(=O)O)cc1)N1CC(c2ccc(-n3c(-c4cccnc4N)nc4ccc(-c5ccccc5)nc43)cc2)C1` (single isomer, unassigned) [Compound 126] are less than 500 nM and more than 500 nM.
On to `COC(=O)c1ccc([C@@H](C)N2CC(c3ccc(-n4c(-c5cccnc5N)nc5ccc(-c6ccccc6)nc54)cc3)C2)cc1` (single isomer, unassigned) [Compound 157], for which the half-inhibitory concentration (IC50) in assay [1] was less than 500 nM; in assay [2], more than 500 nM.
Regarding `COC(=O)c1ccc([C@H](C)N2CC(c3ccc(-n4c(-c5cccnc5N)nc5ccc(-c6ccccc6)nc54)cc3)C2)cc1` (single isomer, unassigned) [Compound 158], the concentration for half-maximal inhibition (IC50) was less than 500 nM in assay [1] and more than 500 nM in assay [2].
As for `Nc1ncccc1-c1nc2ccc(-c3ccccc3)nc2n1-c1ccc(CNC(=O)c2cccc(S(=O)(=O)O)c2F)cc1` [Compound 9, 3-((4-(2-(2-aminopyridin-3-yl)-5-phenyl-3H-imidazo[4,5-b]pyridin-3-yl)benzyl)carbamoyl)-2-fluorobenzenesulfonic acid], the IC50 was less than 500 nM in assay [1] and 200 to 500 nM in assay [2].
As to `Nc1ncccc1-c1nc2ccc(-c3ccccc3)nc2n1-c1ccc(CNC(=O)c2cc(F)cc(C(=O)O)c2)cc1` [Compound 21, 3-((4-(2-(2-aminopyridin-3-yl)-5-phenyl-3H-imidazo[4,5-b]pyridin-3-yl)benzyl)carbamoyl)-5-fluorobenzoic acid], the half-maximal inhibitory concentration (IC50) is less than 500 nM in assay [1] and less than 50 nM in assay [2].
Consider `Nc1ncccc1-c1nc2ccc(-c3ccccc3)nc2n1-c1ccc(CNC(=O)c2cc(C(=O)O)ccc2F)cc1` [Compound 23, 3-((4-(2-(2-aminopyridin-3-yl)-5-phenyl-3H-imidazo[4,5-b]pyridin-3-yl)benzyl)carbamoyl)-4-fluorobenzoic acid], for which the IC50 in assay [1] was less than 500 nM; in assay [2], less than 50 nM.
With `Nc1ncccc1-c1nc2ccc(-c3ccccc3)nc2n1-c1ccc(CNC(=O)c2ccc(CC(=O)O)cc2)cc1` [Compound 30, 2-(4-((4-(2-(2-aminopyridin-3-yl)-5-phenyl-3H-imidazo[4,5-b]pyridin-3-yl)benzyl)carbamoyl)phenyl)acetic acid], the results for the IC50 in assay [1] and in assay [2] were less than 500 nM and 50 to 200 nM, respectively.
For `Nc1ncccc1-c1nc2ccc(-c3ccccc3)nc2n1-c1ccc(CNC(=O)c2cccc(CC(=O)O)c2)cc1` [Compound 32, 2-(3-((4-(2-(2-aminopyridin-3-yl)-5-phenyl-3H-imidazo[4,5-b]pyridin-3-yl)benzyl)carbamoyl)phenyl)acetic acid], the half-maximal inhibitory concentration (IC50) was less than 500 nM in assay [1] and 50 to 200 nM in assay [2].
`COC(=O)Cc1cccc(C(=O)NCc2ccc(-n3c(-c4cccnc4N)nc4ccc(-c5ccccc5)nc43)cc2)c1F` [Compound 33, methyl 2-(3-((4-(2-(2-aminopyridin-3-yl)-5-phenyl-3H-imidazo[4,5-b]pyridin-3-yl)benzyl)carbamoyl)-2-fluorophenyl)acetate]: the IC50 in assay [1] was less than 500 nM; in assay [2], more than 500 nM.
On to `Nc1ncccc1-c1nc2ccc(-c3ccccc3)nc2n1-c1ccc(CNC(=O)c2cccc(CC(=O)O)c2F)cc1` [Compound 34, 2-(3-((4-(2-(2-aminopyridin-3-yl)-5-phenyl-3H-imidazo[4,5-b]pyridin-3-yl)benzyl)carbamoyl)-2-fluorophenyl)acetic acid], for which the figures for the IC50 in assay [1] and in assay [2] were less than 500 nM and 200 to 500 nM, respectively.
Turning to `CC(C(=O)O)c1ccc(C(=O)NCc2ccc(-n3c(-c4cccnc4N)nc4ccc(-c5ccccc5)nc43)cc2)cc1` (stereo not drawn) [Compound 35, 2-(4-((4-(2-(2-aminopyridin-3-yl)-5-phenyl-3H-imidazo[4,5-b]pyridin-3-yl)benzyl)carbamoyl)phenyl) propanoic acid], the IC50 was less than 500 nM in assay [1] and less than 50 nM in assay [2].
As for `CC(C(=O)O)c1cccc(C(=O)NCc2ccc(-n3c(-c4cccnc4N)nc4ccc(-c5ccccc5)nc43)cc2)c1F` (stereo not drawn) [Compound 37, 2-(3-((4-(2-(2-aminopyridin-3-yl)-5-phenyl-3H-imidazo[4,5-b]pyridin-3-yl)benzyl)carbamoyl)-2-fluorophenyl) propanoic acid], the IC50 is less than 500 nM in assay [1] and 200 to 500 nM in assay [2].
Consider `CC(C(=O)O)c1cccc(C(=O)NCc2ccc(-n3c(-c4cccnc4N)nc4ccc(-c5ccccc5)nc43)cc2)n1` (stereo not drawn) [Compound 38, 2-(6-((4-(2-(2-aminopyridin-3-yl)-5-phenyl-3H-imidazo[4,5-b]pyridin-3-yl)benzyl)carbamoyl)pyridin-2-yl) propanoic acid], for which the IC50 in assay [1] and in assay [2] was more than 500 nM in each case.
In the case of `Nc1ncccc1-c1nc2ccc(-c3ccccc3)nc2n1-c1ccc(CNC(=O)c2ccc(CCC(=O)O)cc2)cc1` [Compound 40, 3-(4-((4-(2-(2-aminopyridin-3-yl)-5-phenyl-3H-imidazo[4,5-b]pyridin-3-yl)benzyl)carbamoyl)phenyl) propanoic acid], the half-maximal inhibitory concentration (IC50) in assay [1] is less than 500 nM; in assay [2], less than 50 nM.
Regarding `Nc1ncccc1-c1nc2ccc(-c3ccccc3)nc2n1-c1ccc(CNC(=O)c2cccc(CCC(=O)O)c2)cc1` [Compound 42, 3-(3-((4-(2-(2-aminopyridin-3-yl)-5-phenyl-3H-imidazo[4,5-b]pyridin-3-yl)benzyl)carbamoyl)phenyl) propanoic acid], the figures for the IC50 in assay [1] and in assay [2] were less than 500 nM and 50 to 200 nM, respectively.
The matching figures for `NC(=O)Cc1cccc(C(=O)NCc2ccc(-n3c(-c4cccnc4N)nc4ccc(-c5ccccc5)nc43)cc2)c1` [Compound 43, 3-(2-amino-2-oxoethyl)-N-(4-(2-(2-aminopyridin-3-yl)-5-phenyl-3H-imidazo[4,5-b]pyridin-3-yl)benzyl)benzamide]: less than 500 nM and more than 500 nM.
As to `CCNC(=O)Cc1cccc(C(=O)NCc2ccc(-n3c(-c4cccnc4N)nc4ccc(-c5ccccc5)nc43)cc2)c1` [Compound 44, N-(4-(2-(2-aminopyridin-3-yl)-5-phenyl-3H-imidazo[4,5-b]pyridin-3-yl)benzyl)-3-(2-(ethylamino)-2-oxoethyl)benzamide], the results for the IC50 in assay [1] and in assay [2] were less than 500 nM and more than 500 nM, respectively.
`Nc1ncccc1-c1nc2ccc(-c3ccccc3)nc2n1-c1ccc(CNC(=O)c2cccc(CC(=O)O)c2)nc1` [Compound 48, 2-(3-(((5-(2-(2-aminopyridin-3-yl)-5-phenyl-3H-imidazo[4,5-b]pyridin-3-yl)pyridin-2-yl)methyl)carbamoyl)phenyl)acetic acid]: the IC50 in assay [1] and in assay [2] was more than 500 nM throughout.
Regarding `Nc1ncccc1-c1nc2ccc(-c3ccccc3)nc2n1-c1ccc(CNC(=O)c2cccc(CC(=O)O)c2)cn1` [Compound 49, 2-(3-(((6-(2-(2-aminopyridin-3-yl)-5-phenyl-3H-imidazo[4,5-b]pyridin-3-yl)pyridin-3-yl)methyl)carbamoyl)phenyl)acetic acid], the IC50 in assay [1] and in assay [2] was more than 500 nM in each case.
Take `Nc1ncccc1-c1nc2ccc(-c3ccccc3)nc2n1-c1ccc(CNC(=O)c2cccc(CC(=O)O)c2)c(F)c1` [Compound 50, 2-(3-((4-(2-(2-aminopyridin-3-yl)-5-phenyl-3H-imidazo[4,5-b]pyridin-3-yl)-2-fluorobenzyl)carbamoyl)phenyl)acetic acid]: the IC50 in assay [1] and in assay [2] was more than 500 nM throughout.

In general, IC50 refers to the concentration at which inhibition is half-maximal.
